In ChEMBL document CHEMBL1201862, “PubChem BioAssay data set” (2004):
Active and inactive are the calls of the source.

Experiments:
Format in all cases: functional
[1] = target: T1, Sentrin-specific protease 6 (Homo sapiens, UniProt Q9GZR1);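 note: Luminescence-based dose-response confirmatory assay of SENP6 inhibition, following up an ultra-high-throughput screen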
T1 sequence (Q9GZR1 whole entry): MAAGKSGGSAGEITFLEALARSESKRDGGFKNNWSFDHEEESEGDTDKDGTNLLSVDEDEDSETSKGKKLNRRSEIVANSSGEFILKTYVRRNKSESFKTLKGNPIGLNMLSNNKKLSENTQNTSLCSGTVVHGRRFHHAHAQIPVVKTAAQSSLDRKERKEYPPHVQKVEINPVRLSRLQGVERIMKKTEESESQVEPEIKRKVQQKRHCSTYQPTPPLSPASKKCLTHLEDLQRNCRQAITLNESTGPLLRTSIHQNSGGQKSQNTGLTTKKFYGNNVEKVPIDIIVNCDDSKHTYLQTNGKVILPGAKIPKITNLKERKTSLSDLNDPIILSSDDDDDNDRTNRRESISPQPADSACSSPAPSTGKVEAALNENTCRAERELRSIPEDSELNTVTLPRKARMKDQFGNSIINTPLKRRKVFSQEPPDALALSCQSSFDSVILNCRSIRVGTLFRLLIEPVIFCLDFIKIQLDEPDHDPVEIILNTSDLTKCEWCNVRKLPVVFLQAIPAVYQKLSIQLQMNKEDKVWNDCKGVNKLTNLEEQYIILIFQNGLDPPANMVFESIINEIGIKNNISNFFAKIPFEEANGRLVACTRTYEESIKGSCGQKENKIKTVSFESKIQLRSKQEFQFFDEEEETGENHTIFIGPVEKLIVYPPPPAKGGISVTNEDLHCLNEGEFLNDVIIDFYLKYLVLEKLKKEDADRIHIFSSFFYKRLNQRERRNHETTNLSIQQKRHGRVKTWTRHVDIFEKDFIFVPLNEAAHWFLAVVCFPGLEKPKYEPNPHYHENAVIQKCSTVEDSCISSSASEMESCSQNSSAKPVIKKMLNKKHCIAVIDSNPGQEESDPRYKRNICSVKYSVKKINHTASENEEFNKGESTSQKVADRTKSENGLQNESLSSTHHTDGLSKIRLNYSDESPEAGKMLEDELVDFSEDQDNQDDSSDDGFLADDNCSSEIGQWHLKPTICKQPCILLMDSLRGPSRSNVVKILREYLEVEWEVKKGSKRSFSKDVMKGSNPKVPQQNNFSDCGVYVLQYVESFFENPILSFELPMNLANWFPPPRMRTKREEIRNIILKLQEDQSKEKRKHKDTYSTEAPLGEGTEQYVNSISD

[2] = target: T2, Sentrin-specific protease 7 (Homo sapiens, UniProt Q9BQF6);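 note: Luminescence-based dose-response confirmation of ultra-high-throughput screening hits, measuring inhibition of SENP7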
T2 sequence (Q9BQF6 whole entry): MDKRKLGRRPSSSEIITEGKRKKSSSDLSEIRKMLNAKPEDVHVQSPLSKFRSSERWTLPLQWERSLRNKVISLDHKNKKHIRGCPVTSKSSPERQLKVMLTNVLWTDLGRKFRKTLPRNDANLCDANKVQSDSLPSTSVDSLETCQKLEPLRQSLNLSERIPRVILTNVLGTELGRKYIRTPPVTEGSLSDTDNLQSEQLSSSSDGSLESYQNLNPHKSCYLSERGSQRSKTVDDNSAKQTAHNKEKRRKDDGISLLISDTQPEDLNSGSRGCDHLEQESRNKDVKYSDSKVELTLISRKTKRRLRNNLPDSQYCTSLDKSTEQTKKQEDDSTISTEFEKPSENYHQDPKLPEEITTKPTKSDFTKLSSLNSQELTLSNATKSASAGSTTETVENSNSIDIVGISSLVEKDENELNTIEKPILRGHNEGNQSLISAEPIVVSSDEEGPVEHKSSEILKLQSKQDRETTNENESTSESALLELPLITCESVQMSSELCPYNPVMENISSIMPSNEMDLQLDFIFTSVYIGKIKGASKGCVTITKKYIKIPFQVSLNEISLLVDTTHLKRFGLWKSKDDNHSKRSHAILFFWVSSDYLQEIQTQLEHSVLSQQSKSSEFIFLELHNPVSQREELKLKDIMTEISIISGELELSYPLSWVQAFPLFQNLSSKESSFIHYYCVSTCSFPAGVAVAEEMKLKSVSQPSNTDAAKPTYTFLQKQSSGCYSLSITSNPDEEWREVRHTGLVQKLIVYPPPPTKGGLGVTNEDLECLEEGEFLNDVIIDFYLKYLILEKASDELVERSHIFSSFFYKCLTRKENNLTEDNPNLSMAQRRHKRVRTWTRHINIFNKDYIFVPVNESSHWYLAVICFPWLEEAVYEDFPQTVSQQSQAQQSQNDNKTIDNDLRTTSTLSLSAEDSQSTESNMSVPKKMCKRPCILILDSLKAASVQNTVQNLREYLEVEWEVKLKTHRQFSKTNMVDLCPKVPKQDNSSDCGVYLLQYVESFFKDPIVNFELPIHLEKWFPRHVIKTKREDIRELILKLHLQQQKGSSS

[3] = target: T3, Caspase-3 (Homo sapiens, UniProt P42574);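 note: Dose-response selectivity test against caspase-3 for candidate inhibitors of sentrin-specific proteases (SENPs)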
T3 sequence (P42574 whole entry): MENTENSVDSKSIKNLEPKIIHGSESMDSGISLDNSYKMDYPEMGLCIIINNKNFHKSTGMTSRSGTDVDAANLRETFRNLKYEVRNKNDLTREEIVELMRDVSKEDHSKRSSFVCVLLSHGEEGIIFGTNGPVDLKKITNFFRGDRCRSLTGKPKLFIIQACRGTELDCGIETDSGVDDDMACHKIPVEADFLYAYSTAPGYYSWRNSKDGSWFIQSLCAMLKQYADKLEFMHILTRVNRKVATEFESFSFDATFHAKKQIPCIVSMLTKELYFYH

[4] = target: T4, Sentrin-specific protease 8 (Homo sapiens, UniProt Q96LD8);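 note: luminescence read-out of SENP8 inhibition, dose-response confirmation following an ultra-high-throughput screen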
T4 sequence (Q96LD8 whole entry): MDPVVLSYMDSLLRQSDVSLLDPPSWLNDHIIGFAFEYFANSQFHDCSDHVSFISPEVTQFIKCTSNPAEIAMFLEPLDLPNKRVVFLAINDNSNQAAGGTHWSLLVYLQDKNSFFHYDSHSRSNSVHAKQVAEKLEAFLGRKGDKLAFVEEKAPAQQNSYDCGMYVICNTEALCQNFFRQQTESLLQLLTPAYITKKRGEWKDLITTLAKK

[5] = target: Insulin-like growth factor 1 receptor (Homo sapiens, UniProt P08069); assay: Navigating the Kinome. Panel member name: IGF1R
Sequence of Insulin-like growth factor 1 receptor (P08069 31-736 limits assumed): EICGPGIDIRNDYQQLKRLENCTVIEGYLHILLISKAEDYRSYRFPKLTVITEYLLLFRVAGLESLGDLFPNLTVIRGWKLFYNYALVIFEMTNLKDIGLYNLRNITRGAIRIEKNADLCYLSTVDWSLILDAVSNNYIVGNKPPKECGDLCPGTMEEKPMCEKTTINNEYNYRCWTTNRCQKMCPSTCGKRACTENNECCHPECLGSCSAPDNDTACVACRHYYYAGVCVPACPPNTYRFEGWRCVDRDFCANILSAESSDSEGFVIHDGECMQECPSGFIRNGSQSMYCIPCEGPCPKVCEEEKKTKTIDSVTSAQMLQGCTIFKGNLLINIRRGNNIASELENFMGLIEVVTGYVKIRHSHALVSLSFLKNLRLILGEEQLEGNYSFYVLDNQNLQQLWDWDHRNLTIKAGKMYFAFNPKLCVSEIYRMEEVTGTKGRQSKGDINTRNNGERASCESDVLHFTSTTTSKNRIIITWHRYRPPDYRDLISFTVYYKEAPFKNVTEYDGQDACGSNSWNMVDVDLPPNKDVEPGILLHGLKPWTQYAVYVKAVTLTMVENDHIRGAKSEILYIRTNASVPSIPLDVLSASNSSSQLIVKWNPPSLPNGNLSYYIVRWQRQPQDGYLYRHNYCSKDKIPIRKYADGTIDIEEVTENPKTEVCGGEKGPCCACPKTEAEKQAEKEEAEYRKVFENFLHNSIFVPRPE
Sequence of Insulin-like growth factor 1 receptor (P08069 741-1367 limits assumed): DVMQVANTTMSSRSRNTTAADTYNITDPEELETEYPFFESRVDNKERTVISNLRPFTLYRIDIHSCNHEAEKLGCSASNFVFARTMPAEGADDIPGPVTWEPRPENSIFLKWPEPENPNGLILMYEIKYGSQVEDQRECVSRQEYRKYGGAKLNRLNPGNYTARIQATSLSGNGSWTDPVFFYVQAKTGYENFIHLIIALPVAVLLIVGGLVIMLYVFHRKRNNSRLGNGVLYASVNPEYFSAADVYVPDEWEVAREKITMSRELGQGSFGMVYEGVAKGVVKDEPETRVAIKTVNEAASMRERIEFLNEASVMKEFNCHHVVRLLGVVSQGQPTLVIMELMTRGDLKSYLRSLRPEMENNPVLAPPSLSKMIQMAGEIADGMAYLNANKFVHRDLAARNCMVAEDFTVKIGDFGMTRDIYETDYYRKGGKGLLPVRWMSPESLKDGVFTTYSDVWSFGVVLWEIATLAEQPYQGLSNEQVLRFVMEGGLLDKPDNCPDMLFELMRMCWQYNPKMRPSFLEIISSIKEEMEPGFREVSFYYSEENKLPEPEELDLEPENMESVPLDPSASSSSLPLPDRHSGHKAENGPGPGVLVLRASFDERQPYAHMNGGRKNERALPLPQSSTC

[6] = target: cGMP-dependent protein kinase 1 (Homo sapiens, UniProt Q13976);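 note: value from a kinome panel screen with PRKG1 as the panel member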
Sequence of cGMP-dependent protein kinase 1 (Q13976 whole entry): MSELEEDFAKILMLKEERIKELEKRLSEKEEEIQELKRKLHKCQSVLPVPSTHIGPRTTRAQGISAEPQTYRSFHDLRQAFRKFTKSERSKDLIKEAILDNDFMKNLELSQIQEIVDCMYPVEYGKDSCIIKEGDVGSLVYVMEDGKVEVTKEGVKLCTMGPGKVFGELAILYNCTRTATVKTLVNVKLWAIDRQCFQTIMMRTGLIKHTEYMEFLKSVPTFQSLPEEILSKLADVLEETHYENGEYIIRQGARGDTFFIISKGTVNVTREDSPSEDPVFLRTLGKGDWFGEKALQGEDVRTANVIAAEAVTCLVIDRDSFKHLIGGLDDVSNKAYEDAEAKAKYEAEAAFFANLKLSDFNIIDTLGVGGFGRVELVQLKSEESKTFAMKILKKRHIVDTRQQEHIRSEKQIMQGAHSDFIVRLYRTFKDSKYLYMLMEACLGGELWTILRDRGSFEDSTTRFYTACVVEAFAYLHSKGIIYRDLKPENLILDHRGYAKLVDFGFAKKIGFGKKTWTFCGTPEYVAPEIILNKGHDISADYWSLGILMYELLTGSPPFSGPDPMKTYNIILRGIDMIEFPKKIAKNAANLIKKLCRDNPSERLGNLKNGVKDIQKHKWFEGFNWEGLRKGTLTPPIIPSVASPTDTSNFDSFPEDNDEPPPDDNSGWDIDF

[7] = target: Glycogen synthase kinase-3 alpha (Homo sapiens, UniProt P49840);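 note: GSK3A result taken from a broad kinome-wide kinase panel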
Sequence of Glycogen synthase kinase-3 alpha (P49840 whole entry): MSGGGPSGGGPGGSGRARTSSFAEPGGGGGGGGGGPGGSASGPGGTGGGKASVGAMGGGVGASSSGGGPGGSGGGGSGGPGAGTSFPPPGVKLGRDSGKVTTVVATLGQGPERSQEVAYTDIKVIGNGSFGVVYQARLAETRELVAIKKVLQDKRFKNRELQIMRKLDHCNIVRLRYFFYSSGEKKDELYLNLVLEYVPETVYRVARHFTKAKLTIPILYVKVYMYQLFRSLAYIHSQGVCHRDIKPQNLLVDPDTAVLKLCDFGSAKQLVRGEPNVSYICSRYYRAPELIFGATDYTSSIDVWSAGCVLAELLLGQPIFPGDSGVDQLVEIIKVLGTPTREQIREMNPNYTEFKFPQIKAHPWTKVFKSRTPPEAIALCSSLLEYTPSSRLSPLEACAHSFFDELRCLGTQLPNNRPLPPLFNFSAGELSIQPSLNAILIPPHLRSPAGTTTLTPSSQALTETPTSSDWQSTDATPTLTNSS

[8] = target: Dual specificity protein kinase CLK2 (Homo sapiens, UniProt P49760)
Sequence of Dual specificity protein kinase CLK2 (P49760 whole entry): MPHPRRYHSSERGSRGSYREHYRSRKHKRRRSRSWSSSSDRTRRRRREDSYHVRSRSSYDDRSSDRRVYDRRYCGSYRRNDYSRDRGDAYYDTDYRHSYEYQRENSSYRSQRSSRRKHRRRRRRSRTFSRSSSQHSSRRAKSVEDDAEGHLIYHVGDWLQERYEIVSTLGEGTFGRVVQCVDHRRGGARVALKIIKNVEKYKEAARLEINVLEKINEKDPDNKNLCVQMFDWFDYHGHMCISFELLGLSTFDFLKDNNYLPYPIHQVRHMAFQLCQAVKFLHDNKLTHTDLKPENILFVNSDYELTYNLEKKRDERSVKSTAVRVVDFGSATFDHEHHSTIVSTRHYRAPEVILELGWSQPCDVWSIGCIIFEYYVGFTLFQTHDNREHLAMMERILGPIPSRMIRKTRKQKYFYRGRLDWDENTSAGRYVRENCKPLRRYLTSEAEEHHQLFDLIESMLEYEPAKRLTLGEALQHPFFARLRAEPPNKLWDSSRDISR

[9] = target: Protein kinase C zeta type (Homo sapiens, UniProt Q05513);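 note: measured as one member of a broad kinase profiling panel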
Sequence of Protein kinase C zeta type (Q05513 whole entry): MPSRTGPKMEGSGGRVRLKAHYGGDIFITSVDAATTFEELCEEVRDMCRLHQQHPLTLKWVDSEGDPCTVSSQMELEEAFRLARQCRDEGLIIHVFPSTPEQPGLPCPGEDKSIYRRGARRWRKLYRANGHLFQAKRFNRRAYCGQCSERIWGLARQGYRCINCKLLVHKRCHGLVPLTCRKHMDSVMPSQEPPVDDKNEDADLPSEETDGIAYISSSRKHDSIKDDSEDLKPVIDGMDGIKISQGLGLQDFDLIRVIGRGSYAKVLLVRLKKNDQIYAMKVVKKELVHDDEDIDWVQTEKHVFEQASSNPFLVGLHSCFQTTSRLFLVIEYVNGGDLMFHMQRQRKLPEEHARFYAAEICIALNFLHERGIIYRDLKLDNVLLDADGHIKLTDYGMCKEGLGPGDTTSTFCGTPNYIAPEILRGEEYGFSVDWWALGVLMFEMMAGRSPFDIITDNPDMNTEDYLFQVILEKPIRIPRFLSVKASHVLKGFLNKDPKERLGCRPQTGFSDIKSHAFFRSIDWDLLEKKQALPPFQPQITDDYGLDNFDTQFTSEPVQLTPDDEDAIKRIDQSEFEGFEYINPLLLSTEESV

[10] = target: Serine/threonine-protein kinase PLK1 (Homo sapiens, UniProt P53350);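 note: PLK1 measured as one member of a kinome-wide profiling panel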
Sequence of Serine/threonine-protein kinase PLK1 (P53350 whole entry): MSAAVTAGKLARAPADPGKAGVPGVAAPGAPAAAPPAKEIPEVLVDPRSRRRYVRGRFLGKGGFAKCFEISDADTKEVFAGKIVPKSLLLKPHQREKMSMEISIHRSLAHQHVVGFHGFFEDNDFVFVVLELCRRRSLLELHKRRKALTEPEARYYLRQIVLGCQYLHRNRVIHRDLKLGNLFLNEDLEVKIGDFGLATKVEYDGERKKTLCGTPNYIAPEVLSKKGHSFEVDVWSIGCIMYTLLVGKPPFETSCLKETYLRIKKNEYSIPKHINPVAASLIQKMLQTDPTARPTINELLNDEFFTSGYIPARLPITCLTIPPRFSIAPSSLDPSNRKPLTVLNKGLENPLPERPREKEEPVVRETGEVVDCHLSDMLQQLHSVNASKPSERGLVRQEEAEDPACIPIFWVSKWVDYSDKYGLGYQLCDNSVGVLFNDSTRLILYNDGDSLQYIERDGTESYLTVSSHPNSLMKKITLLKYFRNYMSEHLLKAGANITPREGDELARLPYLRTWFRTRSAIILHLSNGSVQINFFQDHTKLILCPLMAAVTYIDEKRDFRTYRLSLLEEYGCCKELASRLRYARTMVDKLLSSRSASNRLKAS

Row | SMILES | IC50 [1] | IC50 [2] | IC50 [3] | IC50 [4] | Ki [5] | Ki [6] | Ki [7] | Ki [8] | Ki [9] | Ki [10]
1 | O=C(COC(=O)c1ccc([N+](=O)[O-])s1)Nc1cccc(S(=O)(=O)/N=C2/CCCCCN2)c1 | 4.62 µM (active) | 7.08 µM (active) | 10 µM (active) | 4.92 µM (active) |  |  |  |  |  | 
2 | COc1ccc(C(C[N+](=O)[O-])c2c(C)[nH]n(-c3ccccc3)c2=O)cc1 (centres undefined) | 7.1 µM (active) | 7.15 µM (active) | > 100 µM (inactive) | 8.32 µM (active) |  |  |  |  |  | 
3 | Oc1c2ccccc2c2c3c(cccc13)N=N2 [SP-600125] |  |  |  |  | > 2 µM (inactive) | > 2 µM (inactive) | 1.26 µM (active) | 631 nM (active) | > 7.94 µM (inactive) | > 7.94 µM (inactive)
